Laboratory results: article PMC6773865, “Functional recruitment of dynamin requires multimeric interactions for efficient endocytosis” (Nature Communications, 2019)

Test system: rat brain lysate proteins
Assay: Affinity isolation (pull-down) from rat brain lysate, silver stain and proteomics
Format: binding
Conditions: for proteins pulled down (silver stain, words): biotinylated peptide, rat brain lysate, streptavidin beads; for enrichment of co-precipitated proteins by mass spectroscopy: in comparison to control conditions (absence of peptide)
Procedure: Brains were obtained from adult (2–3 months old) Sprague-Dawley rats raised in the animal facility of Bordeaux University B 33 063 917. Animals were killed by decapitation after isoflurane anaesthesia (5%, 3 min), in accordance with the European 2010/63/EU directive and approved by the Bordeaux University Ethics Committee (CE50). Frozen brains (2 × ~1.5 g) were thawed in 20 mL ice cold modified RIPA buffer (50 mM Tris pH 7.5, 150 mM NaCl, 0.1% SDS, 0.5% sodium deoxycholate, 1% NP-40, 1 mM EDTA) containing a protease inhibitor mixture (1:1000; Protease Inhibitor Cocktail set III; Calbiochem) for about 5 min and cut into small pieces. The tissues were homogenised using a glass/teflon homogeniser. Homogenates were centrifuged at 7500 × g for 25 min at 4 °C to remove cell debris. The supernatant was aliquoted and stored at −80 °C until the affinity-based isolation (pull-down) experiments were performed. Streptavidin-coated beads (Dynabeads M-280, Life Technologies) were washed three times and incubated for 15 min at room temperature (RT) in modified RIPA buffer supplemented with 0.1% BSA. Rat brain lysates were incubated with the biotinylated peptide (or biotin as a negative control) for 10 min at RT before addition of the beads and further incubation for 5 min at RT. Beads were washed five times in RIPA buffer and transferred into new eppendorf tubes. For elution, acetylated ligands were added in excess to the bead suspension and incubated for 5 min at RT. The supernatant was kept for proteomics analysis and electrophoresis followed by silver staining after addition of fresh 6× sample buffer (ProteoSilver Silver Stain Kit, Sigma-Aldrich).
Samples were solubilized in Laemlli buffer and were deposited in triplicate onto SDS-PAGE. Separation was stopped once proteins have entered resolving gel. After colloidal blue staining, bands were cut out from the SDS-PAGE gel and subsequently cut in 1 mm × 1 mm gel pieces. Gel pieces were destained in 25 mM ammonium bicarbonate 50% MeCN, rinsed twice in ultrapure water and shrunk in MeCN for 10 min. After MeCN removal, gel pieces were dried at room temperature, covered with the trypsin solution (10 ng/µl in 50 mM NH4HCO3), rehydrated at 4 °C for 10 min, and finally incubated overnight at 37 °C. Spots were then incubated for 15 min in 50 mM NH4HCO3 at room temperature with rotary shaking. The supernatant was collected, and an H2O/MeCN/HCOOH (47.5:47.5:5) extraction solution was added onto gel slices for 15 min. The extraction step was repeated twice. Supernatants were pooled and dried in a vacuum centrifuge to a final volume of 25 µL. Digests were finally resuspended in 25 µl of formic acid (5%, v/v) and stored at −20 °C.
Peptide mixture was analysed on a Ultimate 3000 nanoLC system (Dionex, Amsterdam, The Netherlands) coupled to a nanospray LTQ-Orbitrap XL mass spectrometer (ThermoFinnigan, San Jose, CA). Ten microliters of peptide digests were loaded onto a 300-µm-inner diameter × 5-mm C18 PepMap^TM trap column (LC Packings) at a flow rate of 30 µL/min. The peptides were eluted from the trap column onto an analytical […] × 15-cm C18 Pep-Map column (LC Packings) with a 4–40% linear gradient of solvent B in 35 min (solvent A was 0.1% formic acid in 5% MeCN, and solvent B was 0.1% formic acid in 80% MeCN). The separation flow rate was set at 300 nL/min. The mass spectrometer operated in positive ion mode at a 2-kV needle voltage. Data were acquired in a data-dependent mode. Mass spectrometry (MS) scans (m/z 300–1700) were recorded at a resolution of R = 70,000 (@ m/z 400) and an AGC target of 5 × 10^5 ions collected within 500 ms. Dynamic exclusion was et to 30 s and top 6 ions were selected from fragmentation in CID mode. MS/MS scans with a target value of 1 × 10^4 ions were collected in the ion trap with a maximum fill time of 200 ms. Additionally, only +2 and +3 charged ions were selected for fragmentation. […]

[1] = pull-down from rat brain lysate, LC-MS/MS, vs no peptide control

Ac-YPPPQVPSRPNRAPPG-NH2 [D15, reference compound]
proteins pulled down (silver stain, words): unable to pull down any detectable amount of protein | enrichment of co-precipitated proteins by mass spectroscopy: failed to show any significant enrichment | Max fold change, BIN1 (Amph2) [1]: 0.163 | Max fold change, CD2-ap [1]: 0.01 | Max fold change, Endophilin-A1 [1]: 0.001 | Max fold change, Intersectin-2 [1]: 0.944 | Max fold change, SH3d19 [1]: 0.232 | Max fold change, SH3kbp1/CIN85 [1]: 0.205 | Max fold change, any SH3 domain-containing protein [1]: < 1

CC(=O)N[C@@H](Cc1ccc(O)cc1)C(=O)N[C@@H](CCCCn1cc(CCC(=O)NCCCOCCOCCOCCCNC(=O)CCC(=O)NCCCOCCOCCOCCCNC(=O)CCC(=O)NCCCOCCOCCOCCCNC(=O)CCC(=O)N2CCC[C@H]2C(=O)N2CCC[C@H]2C(=O)N2CCC[C@H]2C(=O)N[C@@H](CCC(N)=O)C(=O)N[C@H](C(=O)N2CCC[C@H]2C(=O)N[C@@H](CO)C(=O)N[C@@H](CCCNC(=N)N)C(=O)N2CCC[C@H]2C(=O)N[C@@H](CC(N)=O)C(=O)N[C@@H](CCCNC(=N)N)C(=O)N[C@@H](C)C(=O)N2CCC[C@H]2C(=O)N2CCC[C@H]2C(=O)NCC(N)=O)C(C)C)nn1)C(=O)NCCCOCCOCCOCCCNC(=O)CCC(=O)NCCCOCCOCCOCCCNC(=O)CCC(=O)NCCCOCCOCCOCCCNC(=O)CCC(=O)N1CCC[C@H]1C(=O)N1CCC[C@H]1C(=O)N1CCC[C@H]1C(=O)N[C@@H](CCC(N)=O)C(=O)N[C@H](C(=O)N1CCC[C@H]1C(=O)N[C@@H](CO)C(=O)N[C@@H](CCCNC(=N)N)C(=O)N1CCC[C@H]1C(=O)N[C@@H](CC(N)=O)C(=O)N[C@@H](CCCNC(=N)N)C(=O)N[C@@H](C)C(=O)N1CCC[C@H]1C(=O)N1CCC[C@H]1C(=O)NCC(N)=O)C(C)C [dD15-N]
proteins pulled down (silver stain, words): isolated a number of proteins | enrichment of co-precipitated proteins by mass spectroscopy: highly enriched in CME related proteins | Max fold change, AP2a1 [1]: 28.6 | Max fold change, AP2a2 [1]: 13.8 | Max fold change, AP2b1 [1]: 40.0 | Max fold change, AP2m1 [1]: 25.5 | Max fold change, Actg1 [1]: 2.2 | Max fold change, Actg2 [1]: 2.3 | Max fold change, Amphiphysin1 [1]: 40.7 | Max fold change, Amy1a [1]: 2.8 | Max fold change, Appbp2 [1]: 20.8 | Max fold change, Atp1a3 [1]: 33.4 | Max fold change, BIN1 (Amph2) [1]: 70.2 | Max fold change, CD2-ap [1]: 124.5 | Max fold change, CHC [1]: 22.7 | Max fold change, Calcoco1 [1]: 11.9 | Max fold change, Capza1 [1]: 23.0 | Max fold change, Dnm1 [1]: 27.4 | Max fold change, Endophilin-A1 [1]: 53.5 | Max fold change, Endophilin-A2 [1]: 1.7 | Max fold change, Eps15l1 [1]: 196.9 | Max fold change, Hspa5 [1]: 4.1 | Max fold change, Hspa8 [1]: 15.6 | Max fold change, Hspa9 [1]: 42.1 | Max fold change, Intersectin-1 [1]: 60.7 | Max fold change, Intersectin-2 [1]: 118.9 | Max fold change, Rundc3a [1]: 16.0 | Max fold change, SH3d19 [1]: 42.9 | Max fold change, SH3kbp1/CIN85 [1]: 207.5 | Max fold change, SNX18 [1]: 16.1 | Max fold change, Tuba1a [1]: 13.3 | Max fold change, Tuba4a [1]: 14.5 | Max fold change, Tubb2a [1]: 75.4 | Max fold change, Tubb3 [1]: 1.2 | Max fold change, Tubb4a [1]: 43.4 | Max fold change, Tubb5 [1]: 18.0 | Max fold change, Ubc [1]: 1.2
